Measured values published in paper PMC7222207, “Characterization of a CholesteroNitrone (ISQ-201), a Novel Drug Candidate for the Treatment of Ischemic Stroke” (Antioxidants, 2020).

Assays:
[1] = system: transient forebrain ischemia, cortex and hippocampal CA1; assay: Global cerebral ischemia (4VO), dose-response curve of neuroprotection; type: in vivo, male Wistar rats; settings: for EC50 of neuroprotection from dose-response curve: 5 days of reperfusion
Procedure: Transient forebrain ischemia was induced in adult male Wistar rats (10–12 weeks, Charles River) by the standard four-vessel occlusion model (4VO) described previously. Briefly, both vertebral arteries were irreversibly occluded by electrocoagulation under anesthesia, with a mixture of atropine, ketamine, and diazepam (0.25, 62.5, and 5 mg/kg, respectively) delivered through intraperitoneal injection. After 24 h, ischemia was induced by carotid occlusion with atraumatic clips, for 15 min, and then the clips were removed from the carotid arteries to allow reperfusion. Body temperature was maintained at 37 °C during the surgical procedure. The animals were studied after 5 days of reperfusion (R5d) after which they were sacrificed. Sham control animals were prepared in the same way, without carotid occlusion. We performed a power analysis (http://www.biomath.info/power/ttest.htm) to determine the sample size. Significance level and statistical power were set at 0.05 and 0.8 (80%), respectively, which afforded a sample size of […] subjects per group. The treatments were administered with concealed allocation, and in randomized order, according to a computer-generated randomization program. […]
Figure 2 Dose-response curve of ISQ-201. Ischemic animals were treated with a vehicle or ISQ-201 (range 0.01–0.1 mg/kg) by an intravenous injection, at the onset of reperfusion after global cerebral ischemia, and ISQ-201 effect was evaluated by assessing the neuronal death at 5 days of reperfusion (R5d). […] Fluoro-Jade-positive dead neurons were visualized by fluorescence microscopy (in green) in the hippocampal CA1 (CA1) and cortical (C) regions (images), and counted, as described in Materials and Methods (bar graph). (b) Brain sections as in (a) were used for apoptosis detection by TUNEL assay after fixation, and were visualized by fluorescence microscopy (in green) in the CA1 and C regions (images). TUNEL-positive cells were counted in the CA1 and C regions, as described in the Materials and Methods (bar graph). […]

[2] = system: transient middle cerebral artery occlusion; assay: Transient focal cerebral ischemia (tMCAO), infarct size by TTC stain; type: in vivo, male C57BL/6 mice; settings: mice, 48 h after tMCAO
[3] = system: cerebral ischemia; design: method as in PMID 26241908; settings: 0.05 and 0.1 mg/kg intraperitoneal at onset of reperfusion; cited from earlier work

SMILES: CC(C)[C@H]1CC[C@H]2[C@@H]3CCC4=C/C(=[N+](\C)[O-])CC[C@]4(C)[C@H]3CC[C@]12C [ISQ-201]
- EC50 of neuroprotection from dose-response curve ([1]; cortex, iv 0.01–0.1 mg/kg at reperfusion onset): 0.015 mg/kg
- EC50 of neuroprotection from dose-response curve ([1]; hippocampal CA1, iv 0.01–0.1 mg/kg at reperfusion onset): 0.025 mg/kg
- most effective dose in decreasing neuronal death and apoptosis ([1]; iv, doses 0.01–0.1 mg/kg, after 5 days of reperfusion): 0.05 mg/kg
- infarct area in the brain vs vehicle ([2]; 0.05 mg/kg ip at onset of reperfusion): did not change
- reduction in lesion size with respect to vehicle-treated group ([2]; 0.1 mg/kg ip at onset of reperfusion): 21%
- neuronal death, apoptosis and neurodeficit score [3]: significant decreases
